PubChem BioAssay AID256 (DTP/NCI, 2004)
Toxic doses and inconclusive results are not listed. The calls were made as follows: active = survival T/C of 150% or more; inactive = T/C below 125% in these data.

Test system: CD2F1 mice, L1210 leukemia ip, survival T/C
Test: NCI In Vivo Anticancer Drug Screen. Data for tumor model L1210 Leukemia (intraperitoneal) in CD2F1 (CDF1) mice
Conditions: endpoint: mean survival time, higher = longer survival
Outline: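 Ratio T/C, where T is the treated-group value and C the vehicle-dosed control value, from mice implanted with a transplantable tumor.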

[1] = dose: 100.0 mg/kg/injection, schedule: Q01DX001 (ip), vehicle: saline with Tween-80
[2] = dose: 100.0 mg/kg/injection, schedule: Q01DX009 (ip), vehicle: saline with Tween-80
[3] = dose: 100.0 mg/kg/injection, schedule: Q04DX003 (ip), vehicle: saline with Tween-80
[4] = dose: 200.0 mg/kg/injection, schedule: Q04DX003 (ip), vehicle: saline with Tween-80

Measured: T/C

C=COCC(C)C (tested in a mixture with another compound)
inactive: dose: 0.78 mg/kg/injection, schedule: Q01DX009 (ip), vehicle: Klucel (hydroxypropylcellulose) (HPC) 93 % of control | dose: 1.56 mg/kg/injection, schedule: Q01DX009 (ip), vehicle: Klucel (hydroxypropylcellulose) (HPC) 90 % of control | dose: 1.56 mg/kg/injection, schedule: Q01DX009 (ip), vehicle: saline with Tween-80 86 % of control | dose: 1.56 mg/kg/injection, schedule: Q04DX003 (ip), vehicle: other 109 % of control | dose: 3.12 mg/kg/injection, schedule: Q01DX009 (ip), vehicle: Klucel (hydroxypropylcellulose) (HPC) 88 % of control | dose: 3.12 mg/kg/injection, schedule: Q04DX003 (ip), vehicle: other 91 % of control | dose: 3.13 mg/kg/injection, schedule: Q01DX009 (ip), vehicle: saline with Tween-80 92 % of control | dose: 4.67 mg/kg/injection, schedule: Q01DX009 (ip), vehicle: Klucel (hydroxypropylcellulose) (HPC) 98 % of control | dose: 6.25 mg/kg/injection, schedule: Q01DX009 (ip), vehicle: saline with Tween-80 94 % of control | dose: 7.09 mg/kg/injection, schedule: Q01DX009 (ip), vehicle: Klucel (hydroxypropylcellulose) (HPC) 98 % of control | dose: 10.6 mg/kg/injection, schedule: Q01DX009 (ip), vehicle: Klucel (hydroxypropylcellulose) (HPC) 93 % of control | dose: 12.5 mg/kg/injection, schedule: Q04DX003 (ip), vehicle: saline with Tween-80 87 % of control | dose: 15.8 mg/kg/injection, schedule: Q01DX009 (ip), vehicle: alcohol 96 % of control | dose: 18.8 mg/kg/injection, schedule: Q01DX009 (ip), vehicle: saline 111 % of control | dose: 24.0 mg/kg/injection, schedule: Q01DX009 (ip), vehicle: alcohol 88 % of control | dose: 35.0 mg/kg/injection, schedule: Q01DX009 (ip), vehicle: alcohol 97 % of control | dose: 37.5 mg/kg/injection, schedule: Q01DX009 (ip), vehicle: saline 111 % of control | [1] 113 % of control | dose: 200.0 mg/kg/injection, schedule: Q01DX001 (ip), vehicle: saline with Tween-80 109 % of control | dose: 400.0 mg/kg/injection, schedule: Q01DX001 (ip), vehicle: saline with Tween-80 95 % of control

CCCCCCCCCCCCOc1ccc(Sc2ccc(OCCCCCCCCCCCC)cc2C)c(C)c1
inactive: [1] 86 % of control

CCC(C)(O)c1cnc(CC(C)C)c(=O)n1O (stereo not drawn)
inactive: dose: 75.0 mg/kg/injection, schedule: Q01DX001 (ip), vehicle: saline 98 % of control | dose: 150.0 mg/kg/injection, schedule: Q01DX001 (ip), vehicle: saline 102 % of control

Cc1cc(C)c(C)c(S(=O)(=O)O)c1C
inactive: dose: 50.0 mg/kg/injection, schedule: Q01DX009 (ip), vehicle: saline with Tween-80 102 % of control | [2] 102 % of control | [3] 101 % of control | [4] 89 % of control

CC(=O)c1c(C)cc(=O)[nH]c1C
inactive: dose: 100.0 mg/kg/injection, schedule: Q04DX002 (ip), vehicle: saline with Tween-80 96 % of control | dose: 200.0 mg/kg/injection, schedule: Q04DX002 (ip), vehicle: saline with Tween-80 96 % of control | dose: 400.0 mg/kg/injection, schedule: Q04DX002 (ip), vehicle: saline with Tween-80 100 % of control

COC(=O)C1(C)CCOC1=O (stereo not drawn)
inactive: dose: 100.0 mg/kg/injection, schedule: Q04DX002 (ip), vehicle: saline 107 % of control | dose: 200.0 mg/kg/injection, schedule: Q04DX002 (ip), vehicle: saline 98 % of control | dose: 400.0 mg/kg/injection, schedule: Q04DX002 (ip), vehicle: saline 102 % of control

COC(=O)C(Br)C(Br)c1ccccc1 (stereo not drawn)
inactive: [2] 101 % of control | [3] 103 % of control | dose: 200.0 mg/kg/injection, schedule: Q01DX009 (ip), vehicle: saline with Tween-80 101 % of control | [4] 106 % of control | dose: 400.0 mg/kg/injection, schedule: Q01DX009 (ip), vehicle: saline with Tween-80 95 % of control | dose: 400.0 mg/kg/injection, schedule: Q04DX003 (ip), vehicle: saline with Tween-80 106 % of control

O=[N+]([O-])c1ccc(SC(=S)N(c2ccccc2)c2ccccc2)c([N+](=O)[O-])c1
inactive: dose: 100.0 mg/kg/injection, schedule: Q01DX001 (ip), vehicle: Klucel (hydroxypropylcellulose) (HPC) 87 % of control | dose: 200.0 mg/kg/injection, schedule: Q01DX001 (ip), vehicle: Klucel (hydroxypropylcellulose) (HPC) 91 % of control | dose: 400.0 mg/kg/injection, schedule: Q01DX001 (ip), vehicle: Klucel (hydroxypropylcellulose) (HPC) 100 % of control

COc1cc(/C(C)=N\O)ccc1O
inactive: dose: 100.0 mg/kg/injection, schedule: Q01DX001 (ip), vehicle: other 102 % of control | dose: 100.0 mg/kg/injection, schedule: Q01DX009 (ip), vehicle: other 107 % of control | dose: 200.0 mg/kg/injection, schedule: Q01DX001 (ip), vehicle: other 108 % of control | dose: 200.0 mg/kg/injection, schedule: Q01DX009 (ip), vehicle: other 102 % of control | dose: 400.0 mg/kg/injection, schedule: Q01DX001 (ip), vehicle: other 98 % of control | dose: 400.0 mg/kg/injection, schedule: Q01DX009 (ip), vehicle: other 90 % of control
